Laboratory results published in patent US20080009418A1, “Selective Inhibitors” (Alchemia LTD., priority 2004, published 2008).

Assays:
Conditions in all cases: compound at 10 μM
[1] = molecular target: T1, Human Melanocortin (MC3) (Homo sapiens, UniProt P41968); experiment: Radioligand binding, human melanocortin MC3 membranes, FlashPlate, [125I]-NDP-αMSH
T1 construct: purchased Perkin Elmer Biosignal
Method in brief: (§1)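 Cloned human receptor membranes were coated onto FlashPlate wells and incubated with radioligand and compound (added from a 0.5 mM DMSO daughter plate) for 1 hour at room temperature in the dark. Scintillation counting gave percent inhibition, with DMSO defining total and reference ligand defining non-specific binding.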

[2] = molecular target: T2, Mouse urotensin (mUR2) (Mus musculus, UniProt Q8VIH9); experiment: Radioligand binding, mouse urotensin mUR2 membranes, FlashPlate, [125I]-Urotensin II
T2 construct: purchased Perkin Elmer Biosignal
T2 sequence (Q8VIH9 1-385): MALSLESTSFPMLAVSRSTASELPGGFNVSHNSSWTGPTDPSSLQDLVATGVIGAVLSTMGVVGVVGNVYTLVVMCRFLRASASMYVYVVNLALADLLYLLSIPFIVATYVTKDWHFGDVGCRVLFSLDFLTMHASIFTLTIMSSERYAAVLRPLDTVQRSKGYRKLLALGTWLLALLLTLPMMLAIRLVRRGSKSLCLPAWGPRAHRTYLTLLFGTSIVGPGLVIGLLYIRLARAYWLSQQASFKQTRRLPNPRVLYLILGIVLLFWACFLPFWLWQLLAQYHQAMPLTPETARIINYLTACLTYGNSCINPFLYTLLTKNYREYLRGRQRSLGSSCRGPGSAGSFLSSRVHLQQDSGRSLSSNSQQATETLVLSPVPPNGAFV
Method in brief: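 Cloned mouse urotensin (mUR2) receptor membranes from Perkin Elmer Biosignal were immobilized in FlashPlate microplates using a proprietary coating. Each well got 19.5 μl buffer, then 0.5 μl of DMSO, reference ligand, or compound. Adding 5 μl of [125I]-Urotensin II, diluted to 5× final concentration in binding buffer, started binding. Plates were sealed with TopSeal-A and incubated 1 hour at room temperature in the dark. Wells were counted for 30 seconds each on a TopCount after a 60-second delay, and percentage inhibition was calculated.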

[3] = molecular target: T3, Human melanocortin (MC5) (Homo sapiens, UniProt P33032); experiment: Radioligand binding, human melanocortin MC5 membranes, FlashPlate, [125I]-NDP-αMSH
T3 construct: purchased Perkin Elmer Biosignal
T3 sequence (P33032 whole entry): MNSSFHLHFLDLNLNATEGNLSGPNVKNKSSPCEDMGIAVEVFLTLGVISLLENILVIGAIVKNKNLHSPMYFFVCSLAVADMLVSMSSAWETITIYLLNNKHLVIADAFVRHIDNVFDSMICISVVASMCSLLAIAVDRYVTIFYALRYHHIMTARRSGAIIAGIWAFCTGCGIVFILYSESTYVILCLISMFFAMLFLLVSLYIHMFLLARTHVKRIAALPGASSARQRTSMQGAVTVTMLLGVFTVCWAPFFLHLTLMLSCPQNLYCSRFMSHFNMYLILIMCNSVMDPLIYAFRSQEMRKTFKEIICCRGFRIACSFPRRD
Method in brief: as §1

[4] = molecular target: T4, Human δ-opioid (DOP) (Homo sapiens, UniProt P41143); experiment: Radioligand binding, human δ-opioid (DOP) membranes, FlashPlate, [3H]-Bremazocine
T4 construct: purchased Perkin Elmer Biosignal
T4 sequence (P41143 whole entry): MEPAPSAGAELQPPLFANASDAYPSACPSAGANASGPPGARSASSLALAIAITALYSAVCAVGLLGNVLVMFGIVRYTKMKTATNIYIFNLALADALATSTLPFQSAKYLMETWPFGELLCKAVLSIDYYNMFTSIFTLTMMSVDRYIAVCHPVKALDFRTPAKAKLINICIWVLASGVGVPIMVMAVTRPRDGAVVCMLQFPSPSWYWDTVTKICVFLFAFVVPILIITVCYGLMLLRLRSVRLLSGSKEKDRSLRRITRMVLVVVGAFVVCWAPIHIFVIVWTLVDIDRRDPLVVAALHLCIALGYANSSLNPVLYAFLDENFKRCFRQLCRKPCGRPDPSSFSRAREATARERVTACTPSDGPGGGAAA
Method in brief: as §1

[5] = molecular target: T5, Human κ-Opioid (KOP) (Homo sapiens, UniProt P41145); experiment: Radioligand binding, human κ-opioid (KOP) membranes, filtration, [3H]-Diprenorphine
T5 construct: purchased Perkin Elmer Biosignal
T5 sequence (P41145 whole entry): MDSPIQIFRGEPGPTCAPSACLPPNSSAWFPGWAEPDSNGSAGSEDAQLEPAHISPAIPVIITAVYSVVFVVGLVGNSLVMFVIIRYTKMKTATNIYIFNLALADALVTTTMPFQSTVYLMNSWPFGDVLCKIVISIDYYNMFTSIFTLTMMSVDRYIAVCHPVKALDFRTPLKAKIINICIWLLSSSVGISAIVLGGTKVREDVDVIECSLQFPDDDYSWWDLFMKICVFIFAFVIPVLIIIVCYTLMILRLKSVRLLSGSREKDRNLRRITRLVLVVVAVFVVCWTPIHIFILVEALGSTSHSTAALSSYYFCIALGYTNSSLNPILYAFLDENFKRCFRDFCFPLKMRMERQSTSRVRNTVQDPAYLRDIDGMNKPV
Method in brief: (§2)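 Filtration binding on cloned human receptor membranes (1 Unit/well), [125I]-Substance P for NK1 and [3H]-Diprenorphine for KOP, 1 h at room temperature. Filters PEI-presoaked, washed with cold 50 mM Tris-HCl pH 7.4, counted by scintillation; percent inhibition calculated, reference ligand defining non-specific binding.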

[6] = molecular target: T6, Human Melanocortin (MC4) (Homo sapiens, UniProt P32245); experiment: Radioligand binding, human melanocortin MC4 membranes, FlashPlate, [125I]-NDP-αMSH
T6 construct: purchased Perkin Elmer Biosignal
T6 sequence (P32245 whole entry): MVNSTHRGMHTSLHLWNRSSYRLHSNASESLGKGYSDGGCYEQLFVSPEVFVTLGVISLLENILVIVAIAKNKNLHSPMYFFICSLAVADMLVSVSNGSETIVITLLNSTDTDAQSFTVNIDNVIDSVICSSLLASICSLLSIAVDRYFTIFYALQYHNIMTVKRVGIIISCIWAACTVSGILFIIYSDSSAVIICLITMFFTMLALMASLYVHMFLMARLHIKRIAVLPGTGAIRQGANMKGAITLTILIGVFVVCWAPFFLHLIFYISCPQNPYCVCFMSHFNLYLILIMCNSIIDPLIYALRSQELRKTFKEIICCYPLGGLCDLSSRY
Method in brief: as §1

[7] = molecular target: T7, Human μ-opioid (MOP) (Homo sapiens, UniProt P35372); experiment: Radioligand binding, human μ-opioid (MOP) membranes, FlashPlate, [3H]-Naloxone
T7 construct: purchased Perkin Elmer Biosignal
T7 sequence (P35372 whole entry): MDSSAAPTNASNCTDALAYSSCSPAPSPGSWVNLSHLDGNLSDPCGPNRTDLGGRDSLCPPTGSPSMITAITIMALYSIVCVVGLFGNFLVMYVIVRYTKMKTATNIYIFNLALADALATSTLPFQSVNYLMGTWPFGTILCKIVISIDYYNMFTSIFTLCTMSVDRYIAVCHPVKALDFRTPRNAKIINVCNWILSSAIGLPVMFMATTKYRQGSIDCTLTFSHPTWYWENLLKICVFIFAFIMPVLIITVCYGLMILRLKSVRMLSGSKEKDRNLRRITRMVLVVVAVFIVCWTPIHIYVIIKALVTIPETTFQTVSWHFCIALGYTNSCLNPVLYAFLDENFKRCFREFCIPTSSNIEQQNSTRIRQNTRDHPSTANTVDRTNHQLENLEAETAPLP
Method in brief: as §1

[8] = molecular target: T8, Human neuropeptide Y (NPY-Y1) (Homo sapiens, UniProt P25929); experiment: Radioligand binding, human neuropeptide Y NPY-Y1 membranes, FlashPlate, [125I]-PYY
T8 construct: purchased Perkin Elmer Biosignal
T8 sequence (P25929 1-384): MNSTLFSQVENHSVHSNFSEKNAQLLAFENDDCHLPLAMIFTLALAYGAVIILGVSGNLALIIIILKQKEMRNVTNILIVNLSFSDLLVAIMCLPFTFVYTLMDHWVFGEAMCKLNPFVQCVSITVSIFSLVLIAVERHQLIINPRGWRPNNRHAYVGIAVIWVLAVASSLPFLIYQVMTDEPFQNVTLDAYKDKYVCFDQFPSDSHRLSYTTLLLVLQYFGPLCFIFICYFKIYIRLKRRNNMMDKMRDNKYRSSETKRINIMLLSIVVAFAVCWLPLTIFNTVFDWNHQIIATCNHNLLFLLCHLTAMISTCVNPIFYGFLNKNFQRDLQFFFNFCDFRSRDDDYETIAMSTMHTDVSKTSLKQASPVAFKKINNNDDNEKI
Method in brief: as §1

[9] = molecular target: T9, Human opioid (ORL1) (Homo sapiens, UniProt P41146); experiment: Radioligand binding, human opioid ORL1 membranes, FlashPlate, [125I]-Nociceptin
T9 construct: purchased Perkin Elmer Biosignal
T9 sequence (P41146 whole entry): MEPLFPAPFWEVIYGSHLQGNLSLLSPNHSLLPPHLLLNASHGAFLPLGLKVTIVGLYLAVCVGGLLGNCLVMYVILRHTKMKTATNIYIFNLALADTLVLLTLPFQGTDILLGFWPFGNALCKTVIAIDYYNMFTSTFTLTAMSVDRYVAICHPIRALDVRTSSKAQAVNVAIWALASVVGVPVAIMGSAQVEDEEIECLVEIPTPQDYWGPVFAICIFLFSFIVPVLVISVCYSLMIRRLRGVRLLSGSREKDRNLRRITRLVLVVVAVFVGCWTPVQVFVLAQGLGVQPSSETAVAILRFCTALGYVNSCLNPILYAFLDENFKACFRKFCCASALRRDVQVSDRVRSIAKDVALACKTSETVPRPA
Method in brief: as §1

[10] = molecular target: T10, Human neurokinin (NK1) (Homo sapiens, UniProt P25103); experiment: Radioligand binding, human neurokinin NK1 membranes, filtration, [125I]-Substance P
T10 construct: purchased Perkin Elmer Biosignal
T10 sequence (P25103 whole entry): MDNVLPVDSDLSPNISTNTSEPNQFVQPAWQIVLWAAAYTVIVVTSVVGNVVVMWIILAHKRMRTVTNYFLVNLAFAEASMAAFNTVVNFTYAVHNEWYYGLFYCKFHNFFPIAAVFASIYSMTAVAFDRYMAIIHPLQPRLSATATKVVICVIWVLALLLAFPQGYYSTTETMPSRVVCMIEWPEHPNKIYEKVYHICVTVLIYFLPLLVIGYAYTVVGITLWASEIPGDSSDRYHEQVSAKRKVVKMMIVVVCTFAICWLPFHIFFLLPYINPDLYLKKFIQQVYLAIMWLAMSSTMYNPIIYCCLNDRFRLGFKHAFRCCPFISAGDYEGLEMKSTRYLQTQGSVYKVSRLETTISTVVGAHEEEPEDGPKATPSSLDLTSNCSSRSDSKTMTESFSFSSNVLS
Method in brief: as §2

[11] = molecular target: T11, Human melanin-concentrating hormone (MCH1) (Homo sapiens, UniProt Q99705); experiment: Radioligand binding, human melanin-concentrating hormone MCH1 membranes, FlashPlate, [125I]-S36057
T11 construct: purchased Perkin Elmer Biosignal
T11 sequence (Q99705 whole entry): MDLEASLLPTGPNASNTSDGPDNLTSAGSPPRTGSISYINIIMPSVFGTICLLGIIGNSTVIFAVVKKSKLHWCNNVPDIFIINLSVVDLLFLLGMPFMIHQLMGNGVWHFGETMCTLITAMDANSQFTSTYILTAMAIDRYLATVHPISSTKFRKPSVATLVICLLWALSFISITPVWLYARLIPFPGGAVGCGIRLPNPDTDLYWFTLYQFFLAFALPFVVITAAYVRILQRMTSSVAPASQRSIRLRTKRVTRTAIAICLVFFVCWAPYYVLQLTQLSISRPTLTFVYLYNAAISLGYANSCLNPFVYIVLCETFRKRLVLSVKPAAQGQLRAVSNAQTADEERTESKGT
Method in brief: as §1

T1 sequence (P41968 whole entry): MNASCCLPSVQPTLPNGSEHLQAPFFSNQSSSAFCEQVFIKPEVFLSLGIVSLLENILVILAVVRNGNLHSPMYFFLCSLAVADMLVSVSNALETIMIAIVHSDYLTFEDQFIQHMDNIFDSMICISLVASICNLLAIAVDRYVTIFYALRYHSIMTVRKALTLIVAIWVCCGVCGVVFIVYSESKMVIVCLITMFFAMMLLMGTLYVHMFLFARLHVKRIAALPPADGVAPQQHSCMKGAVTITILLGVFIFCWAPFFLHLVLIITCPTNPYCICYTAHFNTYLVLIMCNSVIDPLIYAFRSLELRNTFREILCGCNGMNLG

CSC1O[C@H](COCc2ccc(-c3ccccc3)cc2)[C@@H](O)[C@@H](OCc2ccc(Cl)cc2)[C@H]1NC(=O)CNC(=N)N (stereo partly shown) [compound 275]
A3: inhibition of radioligand binding ([1]; [125I]-NDP-αMSH, FlashPlate): − (“−” indicates less than 50% inhibition at 10 μM) | A11: inhibition of radioligand binding ([2]; [125I]-Urotensin II, FlashPlate): − (“−” indicates less than 50% inhibition at 10 μM) | A5: inhibition of radioligand binding ([3]; [125I]-NDP-αMSH, FlashPlate): + (“+” indicates greater than 50% inhibition at 10 μM) | A1: inhibition of radioligand binding ([4]; [3H]-Bremazocine, FlashPlate): − (“−” indicates less than 50% inhibition at 10 μM) | A2: inhibition of radioligand binding ([5]; [3H]-Diprenorphine, filtration): − (“−” indicates less than 50% inhibition at 10 μM) | A4: inhibition of radioligand binding ([6]; [125I]-NDP-αMSH, FlashPlate): + (“+” indicates greater than 50% inhibition at 10 μM) | A7: inhibition of radioligand binding ([7]; [3H]-Naloxone, FlashPlate): − (“−” indicates less than 50% inhibition at 10 μM) | A9: inhibition of radioligand binding ([8]; [125I]-PYY, FlashPlate): − (“−” indicates less than 50% inhibition at 10 μM) | A10: inhibition of radioligand binding ([9]; [125I]-Nociceptin, FlashPlate): − (“−” indicates less than 50% inhibition at 10 μM) | A8: inhibition of radioligand binding ([10]; [125I]-Substance P, filtration): + (“+” indicates greater than 50% inhibition at 10 μM) | A6: inhibition of radioligand binding ([11]; [125I]-S36057, FlashPlate): − (“−” indicates less than 50% inhibition at 10 μM)

CO[C@H]1[C@H](O)[C@@H](COCc2ccc(-c3ccccc3)cc2)OC(OCc2ccccc2)[C@@H]1NC(=O)CCCNC(=N)N (stereo partly shown) [compound 85]
A3 radioligand binding inhibition ([1]; human melanocortin MC3 membranes): + (“+” indicates greater than 50% inhibition at 10 μM) | A11 radioligand binding inhibition ([2]; mouse urotensin mUR2 membranes): − (“−” indicates less than 50% inhibition at 10 μM) | A5 radioligand binding inhibition ([3]; human melanocortin MC5 membranes): + (“+” indicates greater than 50% inhibition at 10 μM) | A1 radioligand binding inhibition ([4]; human δ-opioid (DOP) membranes): − (“−” indicates less than 50% inhibition at 10 μM) | A2 radioligand binding inhibition ([5]; human κ-opioid (KOP) membranes): − (“−” indicates less than 50% inhibition at 10 μM) | A4 radioligand binding inhibition ([6]; human melanocortin MC4 membranes): + (“+” indicates greater than 50% inhibition at 10 μM) | A7 radioligand binding inhibition ([7]; human μ-opioid (MOP) membranes): + (“+” indicates greater than 50% inhibition at 10 μM) | A9 radioligand binding inhibition ([8]; human NPY-Y1 membranes): − (“−” indicates less than 50% inhibition at 10 μM) | A10 radioligand binding inhibition ([9]; human ORL1 membranes): + (“+” indicates greater than 50% inhibition at 10 μM) | A8 radioligand binding inhibition ([10]; human neurokinin NK1 membranes): + (“+” indicates greater than 50% inhibition at 10 μM) | A6 radioligand binding inhibition ([11]; human MCH1 membranes): + (“+” indicates greater than 50% inhibition at 10 μM)

CO[C@H]1[C@H](O)[C@@H](COCc2ccc3ccccc3c2)OC(OCc2cccc(O)c2)[C@@H]1NC(=O)CCCNC(=N)N (stereo partly shown) [compound 168]
A3 radioligand binding, percentage inhibition ([1]; [125I]-NDP-αMSH): − (“−” indicates less than 50% inhibition at 10 μM) | A11 radioligand binding, percentage inhibition ([2]; [125I]-Urotensin II): − (“−” indicates less than 50% inhibition at 10 μM) | A5 radioligand binding, percentage inhibition ([3]; [125I]-NDP-αMSH): − (“−” indicates less than 50% inhibition at 10 μM) | A1 radioligand binding, percentage inhibition ([4]; [3H]-Bremazocine): − (“−” indicates less than 50% inhibition at 10 μM) | A2 radioligand binding, percentage inhibition ([5]; [3H]-Diprenorphine): − (“−” indicates less than 50% inhibition at 10 μM) | A4 radioligand binding, percentage inhibition ([6]; [125I]-NDP-αMSH): − (“−” indicates less than 50% inhibition at 10 μM) | A7 radioligand binding, percentage inhibition ([7]; [3H]-Naloxone): + (“+” indicates greater than 50% inhibition at 10 μM) | A9 radioligand binding, percentage inhibition ([8]; [125I]-PYY): − (“−” indicates less than 50% inhibition at 10 μM) | A10 radioligand binding, percentage inhibition ([9]; [125I]-Nociceptin): − (“−” indicates less than 50% inhibition at 10 μM) | A8 radioligand binding, percentage inhibition ([10]; [125I]-Substance P): + (“+” indicates greater than 50% inhibition at 10 μM) | A6 radioligand binding, percentage inhibition ([11]; [125I]-S36057): − (“−” indicates less than 50% inhibition at 10 μM)

CC(=O)N[C@H]1C(NC(=O)CCN)O[C@H](CO)[C@@H](O)[C@@H]1OCc1cccc2ccccc12 (stereo partly shown) [compound 356]
A3: inhibition of radioligand binding, human melanocortin (MC3) ([1]; [125I]-NDP-αMSH): − (“−” indicates less than 50% inhibition at 10 μM) | A11: inhibition of radioligand binding, mouse urotensin (mUR2) ([2]; [125I]-Urotensin II): − (“−” indicates less than 50% inhibition at 10 μM) | A5: inhibition of radioligand binding, human melanocortin (MC5) ([3]; [125I]-NDP-αMSH): − (“−” indicates less than 50% inhibition at 10 μM) | A1: inhibition of radioligand binding, human δ-opioid (DOP) ([4]; [3H]-Bremazocine): − (“−” indicates less than 50% inhibition at 10 μM) | A2: inhibition of radioligand binding, human κ-opioid (KOP) ([5]; [3H]-Diprenorphine): − (“−” indicates less than 50% inhibition at 10 μM) | A4: inhibition of radioligand binding, human melanocortin (MC4) ([6]; [125I]-NDP-αMSH): − (“−” indicates less than 50% inhibition at 10 μM) | A7: inhibition of radioligand binding, human μ-opioid (MOP) ([7]; [3H]-Naloxone): − (“−” indicates less than 50% inhibition at 10 μM) | A9: inhibition of radioligand binding, human neuropeptide Y (NPY-Y1) ([8]; [125I]-PYY): + (“+” indicates greater than 50% inhibition at 10 μM) | A10: inhibition of radioligand binding, human opioid (ORL1) ([9]; [125I]-Nociceptin): − (“−” indicates less than 50% inhibition at 10 μM) | A8: inhibition of radioligand binding, human neurokinin (NK1) ([10]; [125I]-Substance P): − (“−” indicates less than 50% inhibition at 10 μM) | A6: inhibition of radioligand binding, human melanin-concentrating hormone (MCH1) ([11]; [125I]-S36057): − (“−” indicates less than 50% inhibition at 10 μM)

NCCCC(=O)NC1C(OCc2ccccc2)OC(COCc2ccccc2)C(O)C1OCc1ccc2ccccc2c1 (stereo not shown) [compound 376]
A3: inhibition of radioligand binding, human melanocortin (MC3) ([1]; [125I]-NDP-αMSH): − (“−” indicates less than 50% inhibition at 10 μM) | A11: inhibition of radioligand binding, mouse urotensin (mUR2) ([2]; [125I]-Urotensin II): − (“−” indicates less than 50% inhibition at 10 μM) | A5: inhibition of radioligand binding, human melanocortin (MC5) ([3]; [125I]-NDP-αMSH): + (“+” indicates greater than 50% inhibition at 10 μM) | A1: inhibition of radioligand binding, human δ-opioid (DOP) ([4]; [3H]-Bremazocine): − (“−” indicates less than 50% inhibition at 10 μM) | A2: inhibition of radioligand binding, human κ-opioid (KOP) ([5]; [3H]-Diprenorphine): − (“−” indicates less than 50% inhibition at 10 μM) | A4: inhibition of radioligand binding, human melanocortin (MC4) ([6]; [125I]-NDP-αMSH): + (“+” indicates greater than 50% inhibition at 10 μM) | A7: inhibition of radioligand binding, human μ-opioid (MOP) ([7]; [3H]-Naloxone): − (“−” indicates less than 50% inhibition at 10 μM) | A9: inhibition of radioligand binding, human neuropeptide Y (NPY-Y1) ([8]; [125I]-PYY): − (“−” indicates less than 50% inhibition at 10 μM) | A10: inhibition of radioligand binding, human opioid (ORL1) ([9]; [125I]-Nociceptin): − (“−” indicates less than 50% inhibition at 10 μM) | A8: inhibition of radioligand binding, human neurokinin (NK1) ([10]; [125I]-Substance P): + (“+” indicates greater than 50% inhibition at 10 μM) | A6: inhibition of radioligand binding, human melanin-concentrating hormone (MCH1) ([11]; [125I]-S36057): − (“−” indicates less than 50% inhibition at 10 μM)
